# Measurements published in US20140024683A1, “CHLORIDE CHANNEL AND CHLORIDE TRANSPORTER MODULATORS FOR THERAPY IN SMOOTH MUSCLE DISEASES” (priority 2011, published 2014).
# “And” between values parts separate entries of the source, which are not always exact repeats. Equal values may be shown once. Where a name gives a salt, the structure may show the parent alone. Read-outs that look alike come from different tables or passages of the source.
# Legend:
# [1] = test system: guinea pig tracheal rings; experiment: Organ bath muscle force, TEA-induced contraction of guinea pig tracheal rings (Examples 1, 4, 13); conditions: for relaxation of TEA-induced contraction: 10 mM TEA
# Procedure: Epithelial denuded guinea pig tracheal rings were suspended in organ baths under 1 g resting tension with continuous digital recordings of muscle force. In separate studies, guinea pig airway smooth muscle cells were enzymatically dispersed and cultured.
# Human muscle tissue was acquired from excess lung airways trimmed during surgery from healthy lung transplant donors. Acquired tissue was stored overnight at […]. Airway smooth muscle contractions measured ex vivo in organ baths were performed as previously described (Gallos et al., 2008; Gallos et al., 2009, Gallos et al., 2011; Gleason et al., 2010; Yim et al., 2011; Mitzuta et al., 2008). Closed guinea pig tracheal rings or strips of human airway smooth muscle (tracheal or main stem bronchus) were suspended in organ baths, which had 95% oxygen constantly perfusing through Dulbecco's Modified Eagle Medium. Rings were cut on the cartilaginous borders of the smooth muscle. The epithelial layer was dissected under microscopic assistance. Briefly, tissues were suspended in a water-jacketed (37° C.) 2-ml organ bath (Radnoti Glass Technology, Monrovia, Calif.) and attached to a Grass FT03 force transducer (Grass Telefactor, West Warwick, R.I.) coupled to a computer via BioPac hardware and Acqknowledge 7.3.3 software (Biopac Systems, Goleta, Calif.). Kreb's-Henseleit (KH) buffer was continuously bubbled with 95% oxygen and 5% carbon dioxide and tissues were allowed to equilibrate at 1 g (guinea pig) or 1.5 g (human) isotonic force for 1 hour with fresh KH buffer changes every 15 minutes.
# Following equilibration, in guinea pig experiments, the capsaicin analog N-vanillylnonanamide (10 μM final) was added to the organ baths to first activate and then deplete nonadrenergic, noncholinergic nerves. […]. In experiments with human tissue, no vanillylnonanamide pretreatment was done. To avoid bias between treatment groups, tissues were contracted to individually calculated EC50 values for acetylcholine and tissues with similar Emax values were randomly assigned to treatments within individual experiments. Following extensive KH buffer changes (8-9 times) tissues were allowed to stabilize at isotonic resting tension (about 1.0 g). To remove confounding effects of other procontractile pathways, each bath received a complement of antagonists 20 minutes prior to subsequent contractile challenge. The antagonists included pyrilamine (10 μM; H1 histamine receptor antagonist), and tetrodotoxin (1 μM; blocker of endogenous cholinergic or C-fiber neuronal effects) in guinea pig experiments or pyrilamine and 10 μM MK571 (leukotriene receptor antagonist) in human tissue experiments. […]
# Airway smooth muscle contractions measured ex vivo in organ baths were performed as set forth above. […]
# [2] = test system: rat lung slices; experiment: Airway lumen area in peripheral small airways of rat lung slices; conditions: contractile agonists
# Procedure: The measurement of airway contraction of a luminal area of small lung airways using the ex vivo rat lung slice method was performed as described (Perez-Zoghbi et al., 2007). The trachea was cannulated with an intravenous catheter, and after the chest cavity was opened, the collapsed lungs were reinflated with 1.3±0.1 ml of 2% agarose (low-gelling temperature) in Sigma-Hanks' Balanced Salt solution (sHBSS), followed by the injection of 0.2±0.1 of air to flush the agarose-sHBSS out of the airways and into the distal alveolar space. Subsequently, a warm (37° C.) solution of gelatin (type A, porcine skin, 300 bloom, 6% in sHBSS) was perfused through the intrapulmonary blood vessels via the pulmonary artery by injecting about 0.3 ml into the right ventricle. The warm agar and gelatin were gelled with cold sHBSS. A single lung lobe was removed and cut into serial sections of about 130 μm thick with a vibratome at about 4° C., starting at the lung periphery. Slices were maintained in DMEM (Invitrogen) at 37° C. and 10% CO2 for up to 3 days. At 37° C., the gelatin in the blood vessel lumen dissolved, leaving the blood vessel lumen empty. Lung slices were mounted in a custom-made perfusion chamber and held in place with a small sheet of nylon mesh. A second cover glass edged with silicone grease was placed over the lung slice. Perfusion of the lung slice was performed using a gravity-fed perfusion system. The volume of the chamber was about 100 μl with a perfusion rate of about 800 μl/min. […] Digital images were recorded in time lapse (30 frames/min). The area of the bronchiole and arteriole lumen was calculated, from each image, by pixel summing using custom-written software. Experiments were performed at room temperature.
# [3] = test system: human airway smooth muscle cells; experiment: FLIPR potentiometric dye membrane potential assay (Examples 9, 12); format: cell-based; conditions: 10 μM
# Procedure: To determine whether blockade of CaCCs or NKCCs induce membrane potential changes in cultured human airway smooth muscle cells, the FLIPR in vitro fluorescent dye assay (Molecular Devices) was used as described by Wafford et al. (2009). Briefly, human airway smooth muscle cells were grown to 100% confluence in 96-well black-walled plates and were washed with warmed (37° C.) normal-chloride buffer [consisting of (in mM) 130 sodium chloride, 2 CaCl2, 1 MgCl2, 10 D-glucose, and 10 HEPES, pH 7.4] four times. A stock solution (100% dye) of FLIPR blue dye (Molecular Devices) was prepared by reconstitution of 1 vial (125 mg) with 100 ml of the normal-chloride buffer (assay buffer). A 50% working stock was prepared by further diluting the reconstituted blue dye 1:1 with assay buffer and was used to load cells (90 μl/well) over 20 minutes at 37° C. All reagents were dissolved in assay buffer. Baseline fluorescence was measured for 3 minutes prior to the first control additions (assay buffer). […] The fluorescence produced by membrane potential change following solution additions was quantified after subtracting changes induced by assay buffer alone.
# [4] = test system: human airway smooth muscle cells; experiment: FLIPR membrane potentiometric dye assay (Example 21); format: cell-based
# Procedure: Immortalized airway smooth muscle cell lines modified to stably express human telomerase reverse transcriptase were a kind gift from Dr. William Gerthoffer (University of Southern Alabama, Mobile, Ala.) prepared as described previously (Gosens et al., 2006) and grown in Dulbecco's Modified Eagle's Medium/F12 media (GIBCO, Grand Island, N.Y.), with 10% FBS and antibiotics.
# Immortalized human airway smooth muscle cells were cultured on black-walled 96 well plates to 100% confluence, and were washed four times with warmed (37° C.) assay buffer of the following composition (in mM): NaCl 140, KCl 4.7, CaCl2 2.5, MgCl2 1.2, HEPES 11, D-glucose 10. A stock solution (100% dye) of FLIPR blue dye was prepared by reconstitution of 1 vial (125 mg) with 100 ml assay buffer. A 50% working stock was prepared by further diluting the reconstituted blue dye 1:1 with assay buffer and was used to load cells (90 μl/well) over 45 min at 37° C. in a humidified cell culture incubator (95% air/5% CO2). All reagents were dissolved in assay buffer. Fluorescence was measured with a Flex Station 3 (Molecular Devices) using an excitation wavelength of 530 nm, emission wavelength of 565 nm and a cutoff filter of 550 nm. Baseline fluorescence was measured every 2 seconds for 1 minute then for 2 minutes after injection of vehicle or compound of interest as indicated (using the Flexstation's 3 integrated injection capabilities).
# Human airway smooth muscle cells were incubated with FLIPR membrane potentiometric dye to assess if the chloride channel blockers changed membrane potential at the cellular level. FLIPR fluorescence will increase with depolarization, and decrease with hyperpolarization. […] Therefore, chloride channel blockade, but not NKCC blockade, hyperpolarized human airway smooth muscle cells.
# [5] = test system: human airway smooth muscle cells; experiment: MQAE fluorescence assay of intracellular chloride; format: cell-based; conditions: 10 mM TEA-acetate
# Procedure: To determine whether blockade of CaCCs or NKCCs induce changes in intracellular chloride concentrations in human airway smooth muscle cells, the MQAE in vitro fluorescent dye assay (Invitrogen) was used. Briefly, human airway smooth muscle cells were grown to 100% confluence in 96-well black-walled plates. Cells were loaded overnight with 10 mM MQAE in serum-free basal cell culture medium (M199, Invitrogen) and were washed once with warmed (37° C.) normal-chloride buffer [consisting of (in mM) 130 sodium chloride, 2 CaCl2, 1 MgCl2, 10 D-glucose, and 10 HEPES, pH 7.4]. […] An increase in fluorescence represents decreased intracellular chloride (removal of halide quenching of MQAE) while decreased fluorescence represents increased intracellular chloride (enhanced halide quenching of MQAE).
# [6] = test system: guinea pig tracheal rings; experiment: Relaxation of potassium gluconate contraction in guinea pig tracheal rings; conditions: 100 μM; 80 mM potassium gluconate
# Procedure: (§1) Animal protocols were approved by the Columbia University Animal Care and Use Committee. Male Hartley guinea pigs weighing approximately 400 g were anesthetized with intraperitoneal injection of sodium pentobarbital (100 mg/kg). Trachea were removed and transferred to ice cold Krebs-Henseleit (KH) buffer of the following composition (in mM): NaCl 118, KCl 5.6, CaCl2 0.5, MgSO4 0.24, NaH2PO4 1.3, NaHCO3 25, glucose 5.6, pH 7.4. Epithelial-denuded tracheal rings were prepared using a dissecting microscope. Epithelium was removed by gently passing cotton fibers through the lumen of the tracheal rings. The rings were suspended in 4 mL-water jacketed organ baths (37° C.: Radnoti Glass Technology, Monrovia, Calif.) and connected to a Grass FT03 force transducer (Grass Telefactor, West Warwick, R.I.) using silk sutures. The transducers were coupled to the computer with BioPac hardware and data was collected using Acqknowledge 7.3.3 software (BioPac Systems, Goleta, Calif.). KH buffer was bubbled with a gas mixture of 95% oxygen and 5% carbon dioxide and buffer was exchanged every 15 minutes for 1 hour during equilibration of tracheal rings at 1 g resting tension. […].
# Many chloride channel blockers are known to also stimulate potassium channels (Greenwood et al., 2007). Thus, we performed additional studies in the presence of a large extracellular concentration of potassium to ensure that our findings of compound 1 or 13 inhibiting a TEA-induced depolarizing contraction were not due to these compounds opening a potassium channel.
# [7] = test system: guinea pig tracheal rings; experiment: Relaxation of TEA contraction in guinea pig tracheal rings (Example 16, library screen); conditions: 10 mM TEA
# Procedure: as §1
# [8] = test system: human airway smooth muscle; experiment: Relaxation of acetylcholine contraction in human airway smooth muscle strips; conditions: 100 μM alone; EC50 acetylcholine
# Procedure: Studies using de-identified human tissue were reviewed by the Columbia University Institutional Review Board and deemed not human subjects research. Tissues were obtained from healthy, normal organ donor discarded surgical waste subsequent to lung transplant surgery. Tissues were collected after transplant and placed in DMEM media (GIBCO) and bubbled overnight in 5% carbon dioxide and 95% oxygen at 4° C. The following morning, the smooth muscle tissue was carefully dissected under a dissecting microscope and the epithelium removed. The strips were anchored in the organ bath as described above using KH buffer of the same composition. The strips were allowed to equilibrate for 1 hour with buffer exchanges every 15 minutes and were treated with 10^−6 M tetrodotoxin, 10^−5 M pyrilamine, and 10^−5
# M MK571. Strips were contracted with an EC50 dose of acetylcholine (Ach)
# This experiment was then repeated with human airway smooth muscle to investigate clinical relevance as a model of bronchospasm in humans.
# [9] = test system: guinea pig tracheal rings; experiment: Potentiation of isoproterenol relaxation of acetylcholine contraction, guinea pig tracheal rings; conditions: Cavia porcellus, read-out: EC50 of isoproterenol-mediated relaxation of an acetylcholine contraction
# Procedure: as §1
# Therefore, we tested whether the chloride channel blockers or modulation of chloride flux could be used in combination with β-agonists to potentiate their effects. […]. Therefore, a combination of treatment with compound 13 and bumetanide potentiated the relaxation effect of isoproterenol.
compound,measurement,setting,value
"O=C(O)c1cccnc1Nc1cccc(C(F)(F)F)c1 [water-soluble NFA, sodium salt of niflumic acid]",potency at relaxing airway smooth muscle (muscle force at 60 minutes as a percent of initial force after TEA treatment),"[1]; 10 μM, water soluble form compared to hydrophobic parent NFA",enhanced potency
COC(=O)C1=C(C)NC(C)=C(C(=O)OC)C1c1ccccc1[N+](=O)[O-] [nifedipine],relaxation of TEA-induced contraction,[1]; 10 μM nifedipine,111%
"[Cl-].[K+] [KCl, potassium chloride]",percent decrease in lumen area compared to rest,[2],significant decrease in lumen area
O=c1[nH]c2cc(C(F)(F)F)ccc2n1-c1cc(C(F)(F)F)ccc1O [NS1619],membrane potential change (FLIPR),[3],positive control for hyperpolarization
same,"membrane potential, continuous fluorescence recording (representative tracing)",[4],hyperpolarize
"CC(=O)[O-].CC[N+](CC)(CC)CC [TEA-acetate, tetraethylammonium (TEA)-acetate]",intracellular chloride (MQAE fluorescence),[5],decreased intracellular chloride concentrations
NS(=O)(=O)c1cc(C(=O)O)c(NCc2ccco2)cc1Cl [furosemide],relaxation of TEA-induced contraction,[1]; 300 μM furosemide,77.6%
"O=C(O)c1cc(Cl)ccc1NCc1ccc(Cl)cc1 [compound 1, 5-chloro-2-((4-chlorobenzyl)amino)benzoic acid]",percent of potassium gluconate-induced contraction at 30 minutes,[6],61.46%±6.3 and 61.5%±6.3
same,"membrane potential, continuous fluorescence recording (representative tracing)",[4],hyperpolarize
same,"change in relative fluorescent units (membrane potential, FLIPR)","[4]; 100 μM, n=12",−240.3+/−35 RFU
same,percent of the TEA-induced contraction remaining at 15 minutes,[7]; 100 μM,23.8±14.9%
same,relaxed fraction of a TEA-induced contraction at 15 minutes after drug addition,[7]; 100 μM,76.2%
same,relaxation of TEA-induced contraction (screen of 20-compound chloride channel blocker library),[7],most potently relax
same,time to complete relaxation of TEA contraction,[7]; representative tracing,≤ 15 min
same,relaxation of acetylcholine contraction,[8],45.4%±6.3
CC(C)NCC(O)c1ccc(O)c(O)c1 (stereo not shown) [isoproterenol],EC50,[9]; vehicle,5.99 nM
same,EC50,[9]; with 10 μM bumetanide,2.51 nM
same,EC50,[9]; with 50 μM compound 13,2.7 nM
same,EC50,[9]; with 50 μM compound 13 and 10 μM bumetanide,0.477 nM
